Assay [1] deals with E. coli MC1061 containing pCBSal. The assay can be described thus: MIC (LD 90) of maximally induced tetA (plasmid pCBSal). The assay is classed as cell-based. The settings on record: Escherichia coli, read-out: MIC (LD 90) of Maximally Induced tetA, pCBSal. As for the experimental part: (§1) E. coli MC1061 containing either pGG57, pCBSal or pGG75 were used to determine the MIC (LD 90) for tetracycline as well as six tetracycline analogs. […] MIC studies were performed in the presence of 0.01 mM IPTG for E. coli MC1061 containing pGG57. […] All of these MIC studies were done in duplicate.

Assay [2] has as its system E. coli MC1061 containing pGG57. The experiment in a line: microbe, parasite or virus in culture. Type of assay: cell-based. The settings on record: Escherichia coli. As for the experimental part: as §1
In assay [3] the test system is E. coli MC1061 containing pGG75. The experiment in a line: MIC (LD 90) of maximally induced tetC (plasmid pGG75). As to conditions: Escherichia coli, read-out: MIC (LD 90) of Maximally Induced tetC, pGG75. The assay is classed as cell-based. As for the experimental part:
as §1

The test system of assay [4] is strain KB3ind. The assay is classed as cell-based, E. coli. The settings on record: strain KB3ind; plate assay (plate or liquid assay). As for the experimental part:
(§2) To detect tetracyclines, a plate assay is developed that is similar to one described previously (11). Cells are grown in Luria Broth (adjusted with NaOH to pH 7.5) with 25 μg/ml of kanamycin to a cell density of 0.5 absorbance units (600 nm). A 25 ml sample of the culture is harvested by centrifugation and resuspended in 1 ml of broth. The cells are mixed with 25 ml of soft agar (1%, wt/vol) and poured onto 100 ml of LB (pH 7.5)+ kanamycin, within a 22 cm^2 NUNC plate (Corning). Samples are applied by spotting from 2 to 15 μl, or by applying a disc impregnated with a compound, and the plate is incubated for 3-4 hours at 37° C. The plates are overlaid with a solution containing 13.5 mg of 6-bromo-2-naphthyl-β-D-galactopyranoside side and 86.5 mg of fast blue RR (Sigma) dissolved in 2 ml of dimethylsulfoxide, to which 25 ml of soft agar is added. β-Galactosidase is detected by the presence of a purple spot.

Assay [5] deals with tetracycline efflux pump (strain KB4 or KB5). The assay can be described thus: Inhibition Assay, plate assay (agar with 5 ng/ml of tetracycline). Type of assay: cell-based, E. coli. As to conditions: for Tetracycline Detection, amount detected in Inhibition plate assay: strain KB4 or KB5, spotted on plate; for response in the Inhibition Assay: 5 ng/ml of tetracycline. As for the experimental part:
as §2
Two assays are developed for detecting inhibitors of the tetA gene product (using strain KB5), or the tetK gene product (using strain KB4). In the Inhibition Assay, cells of strain KB4 or KB5 are treated as described in the tetracycline screen above, except that the agar medium contains 5 ng/ml of tetracycline. Alternatively a Liquid Assay is also developed. Cells are first grown in LB (pH 7.5). Then cells are shifted to medium containing 5 ng/ml of tetracycline, and tetracycline-containing samples are added to aliquots. Cells are then incubated and assayed as described for the Tetracycline Assay. […] However, the intracellular concentration is reduced in tetracycline resistant strains due to the action of the efflux pump, so more tetracycline would be required in the medium to accumulate sufficient tetracycline inside the cell to induce. The Inhibition Assay is designed to detect compounds that cause β-galactosidase induction in the presence of sub-inducing levels of tetracycline for a resistant strain.

Assay [6] deals with strain KB3ind. The experiment in a line: Tetracycline liquid assay (β-galactosidase, Miller Units). Type of assay: cell-based, E. coli. As to conditions: Escherichia coli. As for the experimental part:
(§3) Alternatively, a liquid assay is also used. Cells are grown in LB (pH 7.5), and tetracycline-containing samples are added to aliquots when the density of the culture is 0.1 OD units. After 3-4 generations of the cells, each aliquot is measured for β-galactosidase activity as described (10, 12) and Miller Units (12) are determined. […] For both the plate and liquid assays, this strain is more sensitive than a previously reported screening organism (11).

In assay [7] the test system is Tn10 derivative of strain KB3ind. The assay can be described thus: Induction in liquid culture, Tn10 strain. The assay is classed as cell-based, E. coli. The settings on record: Escherichia coli, read-out: concentration for full induction of β-galactosidase, Tn10 strain, liquid culture. As for the experimental part:
(§4) Cells are added to tetracycline to the final concentration indicated as described in FIG. 7. The sensitive strain is the tetracycline screening organism KB3ind, which induces fully when grown in the presence of 5-10 ng/ml of tetracycline. In contrast, the strain containing the Tn10 element, conferring strong tetracycline resistance, induces fully when the concentration of tetracycline is above 1 μg/ml.
as §3

Assay [8] concerns strain KB4. The assay can be described thus: Induction in liquid culture, strain KB4. Type of assay: cell-based, E. coli. As to conditions: Escherichia coli, read-out: concentration for full induction of β-galactosidase. As for the experimental part:
as §4, §3

For assay [9], the system named is strain MC1061 with plasmid pGG58. The experiment in a line: microbe, parasite or virus in culture. As to conditions: Escherichia coli, read-out: tetracycline resistance.
Another assay concerns strain KB5. The experiment in a line: MIC of strain KB5. Type of assay: cell-based, E. coli. The settings on record: Escherichia coli.
Assay [10] concerns strains containing pCB258. The assay can be described thus: microbe, parasite or virus in culture. The settings on record: Escherichia coli.
In assay [11] the test system is strain KB4. The assay can be described thus: microbe, parasite or virus in culture. The settings on record: Escherichia coli, read-out: tetracycline resistance conferred.
The test system of assay [12] is Tn10 derivative of KB3ind. The experiment in a line: microbe, parasite or virus in culture. The settings on record: Escherichia coli, read-out: tetracycline resistance.
Assay [13] deals with strain KB4 or KB5. The assay can be described thus: Synergy Assay, plate assay (agar with 5 μg/ml of tetracycline). The assay is classed as cell-based, E. coli. The settings on record: for response in the Synergy Assay: 5 μg/ml of tetracycline. As for the experimental part:
Two types of assays for pump inhibitors are designed using this type of screening organism. The first is a Synergy Assay, which determines the ability of a compound or composition to kill the organism in combination with tetracycline. […] In brief, in a Synergy Assay, the screening cells are treated as described above for the tetracycline assay, except that the agar medium contains 5 μg/ml of tetracycline which is near the MIC for the strains to be used in the screen. […] Alternatively, cells are treated as described above for the tetracycline liquid assay, except that cells are shifted to a medium containing 5 μg/ml of tetracycline.
(§5) In the Synergy Assay, cells are treated as above for the plate assay, except that agar medium contains 5 μg/ml of tetracycline, near the MIC for strain KB4 or KB5. […] Alternatively, cells are treated as above for the liquid assay, except that cells are shifted to medium containing 5 μg/ml of tetracycline.

The subject of assay [14] is strain KB4 or KB5. The assay can be described thus: Synergy Assay, liquid assay (5 μg/ml of tetracycline). Type of assay: cell-based, E. coli. As to conditions: liquid culture. As for the experimental part:
Inhibitory activity is assayed in liquid culture by growing strain KB4 in medium lacking tetracycline and then transferring to medium containing 5 ng/ml of tetracycline, a sub-inducing level of tetracycline due to the action of the efflux pump. Nocardamine is also added as indicated. After 4 generations of growth, the specific activity of β-galactosidase is determined in Miller Units (10). […] Alternatively, aliquots of KB4 are transferred to a medium containing 5 μg/ml of tetracycline and the nocardamine concentration indicated.
as §5

The subject of assay [15] is Tn10 derivative of strain KB3ind. The experiment in a line: Growth in LB medium with nocardamine, Tn10 strain. The settings on record: for effect on growth in combination with tetracycline: Tn10 strain, 20 μg/ml or 25 μg/ml of tetracycline; for effect on growth, tetracycline absent: no tetracycline in medium. The assay is classed as cell-based, E. coli. As for the experimental part: (§6) Cells are grown in LB medium lacking tetracycline, as described in the text, and then aliquots are added to medium containing no tetracycline, or a sub-inhibitory concentration for the particular strain. Nocardamine (μg/ml) is present or absent as indicated.

Assay [16] deals with strain KB4. The assay can be described thus: Growth in LB medium with nocardamine, strain KB4. The settings on record: strain KB4, 5 μg/ml of tetracycline. The assay is classed as cell-based, E. coli. As for the experimental part:
as §6

The test system of assay [17] is strain KB3ind. The experiment in a line: Growth in LB medium with nocardamine, strain KB3ind. The assay is classed as cell-based, E. coli. The settings on record: tetracycline-sensitive strain KB3ind, 0.5 μg/ml of tetracycline. As for the experimental part:
FIG. 10 (Parts A, B and C) illustrates the effect of nocardamine on the growth of tetracycline sensitive and resistant cells. Cells are grown in LB medium lacking tetracycline, as described in the text, and then aliquots are added to medium containing no tetracycline, or a sub-inhibitory concentration for the particular strain. Nocardamine (μg/ml) is present or absent as indicated. For strain KB3ind, the tetracycline-sensitive strain, the sub-inhibitory concentration of tetracycline is 0.5 μg/ml. For the Tn10 derivative of strain KB3ind, 20 μg/ml of tetracycline is the sub-inhibitory level. For strain KB4, the modestly tetracycline-resistant organism, 5 μg/ml of tetracycline is the sub-inhibitory concentration.

Converted amounts (≈) assume the structure as drawn. “Also recorded” adds a separate entry of the source. Read-outs that look alike come from different tables or passages of the source.

With `CN(C)C1C(=O)C(C(N)=O)=C(O)C2(O)C(=O)C3=C(O)c4c(O)cccc4C(C)(O)C3CC12` (stereo not shown) [Tetracycline], the MIC in assay [1] is 150 µg/mL (≈ 338 µM); in assay [2] (read-out: MIC (LD 90) of Maximally Induced tetK, pGG57) it was 125 µg/mL (≈ 281 µM); in [2] (read-out: tetracycline resistance conferred) it was 25 µg/mL (≈ 56.3 µM); in assay [3] it was 100 µg/mL (≈ 225 µM); in assay [9], 15 µg/mL (≈ 33.8 µM); in the assay on strain KB5, about 10 µg/mL. Besides, the MIC in [10] (PCB258) was 50 µg/mL (≈ 113 µM); in assay [10] (PCB258, read-out: tetracycline resistance conferred), 40 µg/mL (≈ 90 µM); in the assay with strain KB4 [11], under 10 µg/mL; in [12], over 100 µg/mL. Further, the “response in the Tetracycline Assay (β-galactosidase induction)” value with strain KB3ind [4] is recorded as “capable of detecting”. In addition, the “Tetracycline Detection, amount detected in Inhibition plate assay” value in assay [5] is at least 1 ng; in assay [5] (listed as tetracycline), 1 ng. Further, the EC (full induction) in the assay with strain KB3ind [6] (liquid culture, read-out: concentration for full induction of β-galactosidase) was 0.005 to 0.01 µg/mL; in assay [7], over 1 µg/mL; with strain KB4 [8], 0.03 µg/mL. Besides, the minimal effective concentration in the assay with strain KB3ind [6] (read-out: lowest concentration detected in liquid assay) is 0.0001 µg/mL.

As to `O=C1CCC(=O)N(O)CCCCCNC(=O)CCC(=O)N(O)CCCCCNC(=O)CCC(=O)N(O)CCCCCN1` [nocardamine], the “response in the Tetracycline Assay (β-galactosidase induction)” value in the assay with strain KB3ind [4] is “no response”. The “response in the Inhibition Assay” value is recorded as “induction” in assay [5] (plate assay) and “detected” in [5] (plate assay, listed as Nocardamine). In addition, the “amount sufficient to detect activity in the Inhibition Assay” value in assay [5] (plate assay, strains KB4 and KB5) is listed as “One”. For the same compound, the “response in the Synergy Assay” value in the assay on strain KB4 or KB5 [13] is given as “differential growth inhibition”; in the assay with strain KB4 or KB5 [13] (listed as Nocardamine), “detected”. The “amount sufficient to detect activity in the Synergy Assay” value in the assay with strain KB4 or KB5 [13] (strains KB4 and KB5) is listed as “One”. Besides, the “effect on β-galactosidase production / growth” value in the assay with strain KB4 or KB5 [14] is “marked decrease in β-galactosidase; also recorded: growth inhibition”. Moreover, the “effect on growth in combination with tetracycline” value was “severe growth inhibition; also recorded: inhibits growth” in assay [15], “inhibits the growth” in [15] (listed as Nocardamine), “severe growth inhibition” in the assay on strain KB4 [16] and “affects the growth; also recorded: is affected” in the assay with strain KB3ind [17]. In addition, the figures for the “effect on growth, tetracycline absent” value in [15] and in assay [15] (listed as Nocardamine) were “little or no effect” and “little effect”, respectively.

These data come from US5789188A, “Tetracycline-efflux pump inhibitor screening methods” (priority 1996, dated 1998).
